Data reported in patent US20060264463A1, “Chemical compounds” (priority 2003, published 2006).

Target: T1, human H1 receptor (Homo sapiens, UniProt P35367)
T1 construct: purchased Euroscreen SA, Brussels, Belgium ES-390-M; host or cells: CHO-K1
Assay: Histamine H1 receptor binding, competition displacement of [3H]-pyrilamine
Settings: displacement of 1 nM [3H]-pyrilamine; 2 μg membranes from recombinant CHO-K1 cells expressing the human H1 receptor; 1 hour at room temperature; read-out: H1 pKi (converted)

T1 sequence (P35367 whole entry): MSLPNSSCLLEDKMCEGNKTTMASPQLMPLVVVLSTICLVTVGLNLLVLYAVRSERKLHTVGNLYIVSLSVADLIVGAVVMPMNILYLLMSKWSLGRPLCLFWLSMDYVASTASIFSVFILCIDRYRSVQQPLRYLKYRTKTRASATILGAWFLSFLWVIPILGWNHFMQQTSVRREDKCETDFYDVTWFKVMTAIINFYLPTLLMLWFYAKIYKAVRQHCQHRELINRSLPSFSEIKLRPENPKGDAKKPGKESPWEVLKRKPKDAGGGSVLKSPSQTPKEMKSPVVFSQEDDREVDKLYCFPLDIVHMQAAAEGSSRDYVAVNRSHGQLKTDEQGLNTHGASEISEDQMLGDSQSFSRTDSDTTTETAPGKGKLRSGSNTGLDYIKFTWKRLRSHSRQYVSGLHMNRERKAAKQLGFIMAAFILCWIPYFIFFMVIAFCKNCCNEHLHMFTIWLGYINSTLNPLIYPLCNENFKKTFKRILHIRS

First: COC(=O)c1ccccc1N1CCC(CN2CCC(Oc3ccc(Cl)c(Cl)c3)CC2)CC1 [Example 1, methyl 2-[4-[[4-(3,4-dichlorophenoxy)-1-piperidinyl]methyl]-1-piperidinyl)-benzoate]
Second: N#Cc1ccc(OC2CCN(CC3CCN(c4ccccc4C(=O)O)CC3)CC2)cc1Cl [Example 34, 2-(4-{[4-(3-chloro-4-cyanophenoxy)piperidin-1-yl]methyl}piperidin-1-yl)benzoic acid]
The Ki of the first is 250-fold lower: 2.51 nM for the first, 631 nM for the second.

Going from CCOC(=O)c1cccc(N2CCC(CN3CCC(Cc4ccc(Cl)c(Cl)c4)CC3)CC2)c1 [Example 32, Ethyl 3-(4-{[4-(3,4-dichlorobenzyl)piperidin-1-yl]methyl}piperidin-1-yl)benzoate] to O=C(O)c1cccc(N2CCC(CN3CCC(Cc4ccc(Cl)c(Cl)c4)CC3)CC2)c1 [Example 106, 3-(4-{[4-(3,4-dichlorobenzyl)piperidin-1-yl]methyl}piperidin-1-yl)benzoic acid], the Ki rises from 10 nM to 20 nM (2-fold).

Compared with N#Cc1ccc(OC2CCN(CC3CCN(c4cc(Cl)ccc4C(=O)O)CC3)CC2)cc1Cl [Example 36, 4-chloro-2-(4-{[4-(3-chloro-4-cyanophenoxy)piperidin-1-yl]methyl}piperidin-1-yl)benzoic acid], Cc1cc(OC2CCN(CC3CCN(c4cc(Cl)ccc4C(=O)O)CC3)CC2)ccc1Cl [Example 74, 4-chloro-2-(4-{[4-(4-chloro-3-methylphenoxy)piperidin-1-yl]methyl}piperidin-1-yl)benzoic acid] is 4-fold lower in Ki: 10 nM for the first, 2.51 nM for the second.

Compared with Cc1ccc(C(=O)O)c(N2CCC(CN3CCC(Oc4ccc(Cl)c(Cl)c4)CC3)CC2)n1 [Example 47, 2-(4-{[4-(3,4-dichlorophenoxy)piperidin-1-yl]methyl}piperidin-1-yl)-6-methylnicotinic acid], Cc1cc(C(=O)O)cc(N2CCC(CN3CCC(Oc4ccc(Cl)c(Cl)c4)CC3)CC2)c1 [Example 99, 3-(4-{[4-(3,4-dichlorophenoxy)piperidin-1-yl]methyl}piperidin-1-yl)-5-methylbenzoic acid] is 1.6-fold higher in Ki: 5.01 nM for the first, 7.94 nM for the second.

First: N#Cc1ccc(OC2CCN(CC3CCN(c4c(Cl)cccc4C(=O)O)CC3)CC2)cc1Cl [Example 48, 3-chloro-2-(4-{[4-(3-chloro-4-cyanophenoxy)piperidin-1-yl]methyl}piperidin-1-yl)benzoic acid]
Second: COc1cccc(C(=O)O)c1N1CCC(CN2CCC(Oc3ccc(C#N)c(Cl)c3)CC2)CC1 [Example 55, 2-(4-{[4-(3-chloro-4-cyanophenoxy)piperidin-1-yl]methyl}piperidin-1-yl)-3-methoxybenzoic acid]
The Ki of the first is 4-fold lower: 79.4 nM for the first, 316 nM for the second.

First: Cc1cc(Cl)ccc1OC1CCN(CC2CCN(c3ccccc3C(=O)O)CC2)CC1 [Example 49, 2-(4-{[4-(4-chloro-2-methylphenoxy)piperidin-1-yl]methyl}piperidin-1-yl)benzoic acid]
Second: Cc1cc(Cl)ccc1OC1CCN(CC2CCN(c3ccc([N+](=O)[O-])cc3C(=O)O)CC2)CC1 [Example 59, 2-(4-{[4-(4-chloro-2-methylphenoxy)piperidin-1-yl]methyl}piperidin-1-yl)-5-nitrobenzoic acid]
The Ki of the first is 32-fold higher: 50.1 nM for the first, 1.58 nM for the second.

Going from O=C(O)c1ccccc1N1CCC(O)(CN2CCC(Oc3ccc(Cl)c(Cl)c3)CC2)CC1 [Example 63, 2-(4-{[4-(3,4-dichlorophenoxy)piperidin-1-yl]methyl}-4-hydroxypiperidin-1-yl)benzoic acid] to Cc1cc(OC2CCN(CC3CCN(c4c(F)cccc4C(=O)O)CC3)CC2)ccc1Cl [Example 68, 2-(4-{[4-(4-chloro-3-methylphenoxy)piperidin-1-yl]methyl}piperidin-1-yl)-3-fluorobenzoic acid], the Ki falls from 50.1 nM to 15.8 nM (3.2-fold).

Cc1c(OC2CCN(CC3CCN(c4cccc(C(=O)O)c4)CC3)CC2)ccc(Cl)c1Cl [Example 96, 3-(4-{[4-(3,4-dichloro-2-methylphenoxy)piperidin-1-yl]methyl}piperidin-1-yl)benzoic acid] gave a Ki of 20 nM.
